# In ChEMBL document CHEMBL1201862, “PubChem BioAssay data set” (2004):
# Calls of active or inactive are those of the source.
# Key:
# [1] = molecular target: T1, Trace amine-associated receptor 1 (Homo sapiens, UniProt Q96RJ0); assay: Counterscreen for agonists of the human trace amine associated receptor 1 (hTAAR1): Fluorescence-based cell-based high throughput dose response assay to identify hTAAR1 agonist that also desensitize TAAR1 receptor response.; format: functional
# T1 sequence (Q96RJ0 whole entry): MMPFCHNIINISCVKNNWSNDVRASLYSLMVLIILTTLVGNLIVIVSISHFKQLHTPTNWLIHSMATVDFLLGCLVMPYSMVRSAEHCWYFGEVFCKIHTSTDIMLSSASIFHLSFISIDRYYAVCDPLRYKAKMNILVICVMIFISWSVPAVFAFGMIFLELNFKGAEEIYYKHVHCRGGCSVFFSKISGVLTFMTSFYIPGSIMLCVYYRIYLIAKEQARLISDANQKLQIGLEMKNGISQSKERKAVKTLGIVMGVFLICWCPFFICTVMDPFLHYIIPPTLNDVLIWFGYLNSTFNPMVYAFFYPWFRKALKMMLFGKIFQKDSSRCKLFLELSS
# [2] = molecular target: T1, Trace amine-associated receptor 1; assay: Fluorescence-based cell-based high throughput dose response assay to identify agonists of the human trace amine associated receptor 1 (TAAR1).; format: functional
# [3] = cells; format: functional, cell-based
# [4] = cells; format: functional, cell-based; remark: listed apart in the source
# [5] = molecular target: T2, Oxysterols receptor LXR-beta (Homo sapiens, UniProt P55055); format: functional, cell-based;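 note: agonist activity at LXR measured by a cell-based luminescence readout across a dose range, run as a counterscreen for daf-12 agonists; HEK293 cells with Gal4-LXR fusion and GAL4-driven luciferase reporter; potency for activation of Gal4-LXR reporter so compounds are agonists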
# T2 sequence (P55055 whole entry): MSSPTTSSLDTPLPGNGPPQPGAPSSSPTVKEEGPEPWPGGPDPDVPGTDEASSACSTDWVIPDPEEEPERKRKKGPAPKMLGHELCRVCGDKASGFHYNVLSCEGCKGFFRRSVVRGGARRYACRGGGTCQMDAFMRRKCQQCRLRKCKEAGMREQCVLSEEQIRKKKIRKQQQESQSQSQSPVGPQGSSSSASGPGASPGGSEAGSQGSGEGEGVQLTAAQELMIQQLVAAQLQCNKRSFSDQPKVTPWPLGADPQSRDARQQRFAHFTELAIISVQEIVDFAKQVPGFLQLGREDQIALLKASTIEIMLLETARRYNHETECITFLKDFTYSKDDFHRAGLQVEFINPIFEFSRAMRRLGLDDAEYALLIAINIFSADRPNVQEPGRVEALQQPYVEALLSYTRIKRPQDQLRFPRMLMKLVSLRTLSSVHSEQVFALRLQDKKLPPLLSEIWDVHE
# [6] = viability loss in HepG2 hepatoma cells – cell-based, ATP luminescence, cherry-pick, activator set 2, cytotoxicity control, dose response (AID 1053143); format: functional
# [7] = molecular target: T3, Fatty acid synthase (Homo sapiens, UniProt P49327); assay: inhibition of human FAS-TE enzyme activity – biochemical, endpoint fluorescence intensity, uHTS hits, dose response (AID 624327); format: functional;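 note: fluorescence from hydrolysis of an O-methyl fluorescein acyl ester substrate by the enzyme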
# [8] = molecular target: T3, Fatty acid synthase; assay: inhibition of human FAS-TE enzyme activity – biochemical, kinetic fluorescence intensity, dose response (AID 624326); format: functional;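 note: rate of fluorescence rise from hydrolysis of a fluorogenic O-methyl fluorescein ester substrate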
# [9] = cells
# [10] = molecular target: Major prion protein (Homo sapiens, UniProt P04156); format: functional, cell-based
# [11] = Late stage assay provider results from the probe development effort to identify inhibitors of the Plasmodium falciparum M18 Aspartyl Aminopeptidase (M18AAP): radiolabel-based cell-based dose response assay to identify compounds that inhibit P. falciparum growth in RBCs, Set 2..; format: functional
# [12] = molecular target: Ras and Rab interactor 1/Tyrosine-protein kinase ABL1 (Homo sapiens, UniProt P00519+Q13671); format: functional;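 note: biochemical TR-FRET dose-response test measuring inhibition of binding between Rin1 and Abl proteins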
# [13] = growth inhibition of yeast DHODH-expressing 3D7 parasites – SYBR Green, dry powder samples, dose response (AID 1159570); format: functional, cell-based;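 note: parasite growth measured after 72 hours of compound exposure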
# [14] = growth inhibition of PfATP4-mutant resistant parasites – NITD609-resistant line, SYBR Green, dry powder, dose response (AID 1159571); format: functional, cell-based;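 note: parasites synchronized at ring stage by sorbitol before testing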
# [15] = P. falciparum Dd2 growth inhibitors, dose response, SYBR Green, cherry-picked samples (AID 1159567); format: functional, cell-based
# [16] = Dd2 malaria parasite growth inhibition potency – SYBR Green, dry powder samples, dose response (AID 1159566); format: functional, cell-based;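 note: potency for growth inhibition with lower SYBR green DNA signal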
# [17] = toxicity to human HepG2 hepatoma cells – cell-based, plate reader, dry powder samples, cytotoxicity control, dose response (AID 1159569); format: functional;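 note: inhibitor potency with signal falling toward the positive control level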
# [18] = molecular target: Cytochrome P450 2C9 (Homo sapiens, UniProt P11712)
# [19] = molecular target: Cytochrome P450 2C19 (Homo sapiens, UniProt P33261); assay: Cytochrome panel assay with activity outcomes. Panel member name: p450-cyp2c19 Compounds with AC50 equal or less than 10 uM are considered active; format: functional
# [20] = molecular target: Cytochrome P450 3A4 (Homo sapiens, UniProt P08684);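 note: CYP3A4 tested as one member of a cytochrome P450 panel screen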
# [21] = molecular target: Paired box protein Pax-8 (Homo sapiens, UniProt Q06710); assay: PAX8 transcriptional activity inhibition in RMG-I – RMG-I cells, luciferase, cherry-pick, dose response (AID 687027); format: functional, cell-based;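 note: luciferase reporter driven by Pax8 target thyroperoxidase promoter measured by SteadyGlo luminescence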
# [22] = test system: Vero; assay: cells; format: functional; conditions: Chlorocebus sabaeus
# [23] = PAX5 cellular inhibition readout – cell-based, plate reader, dry powder samples, selectivity assay for PAX8 inhibitor project, dose response (AID 743047); format: functional;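 note: HEK293 cells carrying a Pax5 driven CD19 promoter luciferase reporter; potency of inhibitors that lower reporter luminescence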
# [24] = PAX8-dependent cell viability loss – plate reader, dry powder, dose response (AID 743049); format: functional, cell-based
# [25] = molecular target: T4, DNA repair protein RAD52 homolog (Homo sapiens, UniProt P43351); format: functional, biochemical
# T4 sequence (P43351 whole entry): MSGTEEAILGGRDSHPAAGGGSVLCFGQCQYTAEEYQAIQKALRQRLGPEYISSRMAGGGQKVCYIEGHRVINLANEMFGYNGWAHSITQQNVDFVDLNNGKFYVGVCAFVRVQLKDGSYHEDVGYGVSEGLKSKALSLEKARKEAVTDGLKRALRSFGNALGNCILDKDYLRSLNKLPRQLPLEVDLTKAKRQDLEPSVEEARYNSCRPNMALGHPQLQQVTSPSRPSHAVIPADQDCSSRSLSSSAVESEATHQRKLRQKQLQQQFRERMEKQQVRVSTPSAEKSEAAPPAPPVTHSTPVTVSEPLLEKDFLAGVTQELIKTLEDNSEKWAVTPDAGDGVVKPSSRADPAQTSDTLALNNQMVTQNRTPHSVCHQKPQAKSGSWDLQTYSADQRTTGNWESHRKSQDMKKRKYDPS
# [26] = molecular target: T5, DNA repair and recombination protein RAD54-like (Homo sapiens, UniProt Q92698); assay: RAD54 Holliday junction migration blockers – biochemical, fluorescence, cherry-picked samples, dose series, confirmation (AID 651657); format: functional
# T5 sequence (Q92698 whole entry): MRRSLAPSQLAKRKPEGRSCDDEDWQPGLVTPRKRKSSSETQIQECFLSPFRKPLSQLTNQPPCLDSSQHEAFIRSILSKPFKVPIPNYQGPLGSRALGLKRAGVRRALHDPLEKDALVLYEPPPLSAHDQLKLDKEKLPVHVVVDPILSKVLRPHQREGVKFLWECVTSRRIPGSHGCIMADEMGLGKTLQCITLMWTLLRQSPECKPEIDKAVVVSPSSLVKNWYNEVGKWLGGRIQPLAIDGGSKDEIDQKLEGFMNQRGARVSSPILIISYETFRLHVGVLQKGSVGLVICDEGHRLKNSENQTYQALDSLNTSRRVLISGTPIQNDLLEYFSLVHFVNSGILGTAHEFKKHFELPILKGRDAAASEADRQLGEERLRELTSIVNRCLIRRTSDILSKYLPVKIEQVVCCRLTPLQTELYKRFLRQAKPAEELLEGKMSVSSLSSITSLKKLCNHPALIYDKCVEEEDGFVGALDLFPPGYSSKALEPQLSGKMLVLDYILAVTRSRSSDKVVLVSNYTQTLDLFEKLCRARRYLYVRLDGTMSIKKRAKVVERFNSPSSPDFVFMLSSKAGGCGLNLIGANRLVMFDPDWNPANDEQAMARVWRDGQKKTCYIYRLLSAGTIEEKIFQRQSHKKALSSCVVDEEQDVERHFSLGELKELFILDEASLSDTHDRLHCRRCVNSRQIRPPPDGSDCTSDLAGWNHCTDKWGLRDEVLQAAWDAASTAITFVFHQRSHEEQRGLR
# [27] = viability loss in HeLa cells – cytotoxicity control for MgcRacGAP inhibitor project, dose response (AID 624300); format: functional
# [28] = molecular target: Heat shock protein HSP 90-alpha (Homo sapiens, UniProt P07900); format: functional, organism-based
# [29] = molecular target: T6, Rac GTPase-activating protein 1 (Homo sapiens, UniProt Q9H0H5); assay: blockers of MgcRacGAP-driven Rac1 GTP hydrolysis – biochemical, ADP Hunter fluorescence, primary and confirmatory, confirmation (AID 624330); format: functional
# T6 sequence (Q9H0H5 whole entry): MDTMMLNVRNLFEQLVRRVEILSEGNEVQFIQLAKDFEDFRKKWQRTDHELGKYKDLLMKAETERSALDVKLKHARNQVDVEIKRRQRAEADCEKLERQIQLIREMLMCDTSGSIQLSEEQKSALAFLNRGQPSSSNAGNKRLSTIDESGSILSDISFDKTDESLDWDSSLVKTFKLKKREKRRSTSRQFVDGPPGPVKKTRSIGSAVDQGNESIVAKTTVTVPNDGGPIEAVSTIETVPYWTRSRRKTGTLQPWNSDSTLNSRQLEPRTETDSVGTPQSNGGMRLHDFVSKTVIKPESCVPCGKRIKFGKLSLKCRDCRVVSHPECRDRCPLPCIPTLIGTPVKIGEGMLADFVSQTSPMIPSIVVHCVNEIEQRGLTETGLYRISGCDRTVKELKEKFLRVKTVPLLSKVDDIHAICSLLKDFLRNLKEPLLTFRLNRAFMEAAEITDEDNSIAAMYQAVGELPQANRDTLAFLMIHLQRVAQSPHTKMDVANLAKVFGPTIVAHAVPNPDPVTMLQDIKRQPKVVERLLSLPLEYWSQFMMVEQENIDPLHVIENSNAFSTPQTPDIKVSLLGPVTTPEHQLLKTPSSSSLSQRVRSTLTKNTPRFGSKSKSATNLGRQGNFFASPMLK
# [30] = molecular target: Photoreceptor-specific nuclear receptor (Homo sapiens, UniProt Q9Y5X4); format: functional, cell-based;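 note: CHO-S cells with Gal4-NCOR and VP16-NR2E3 two-hybrid luciferase reporter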
# [31] = Luminescence Cell-Based Dose Confirmation HTS to Identify Inhibitors of Platelet Dense Granule Release. [Related pubchem assays: 1663 (Primary HTS), 1678 (Summary of Project)]; format: functional
# [32] = molecular target: Luciferin 4-monooxygenase (Photinus pyralis, UniProt P08659); assay: inhibition of purified Photinus pyralis luciferase – biochemical, luminescence, dose response (AID 1891)
# [33] = Luminescence Cell-Based Dose Retest to Confirm Inhibitors of Cancer Stem Cells. [Related pubchem assays (depositor defined):AID2717, AID2721]; format: functional; conditions: Homo sapiens
compound,measurement,setting,value
c1ccc(CCNC2CCCCCC2)cc1,IC50,[1],1.72 µM (active)
same,EC50,[2],0.495 µM (active)
same,IC50,[3],> 29.9 µM (inactive)
same,EC50,[4],> 29.9 µM (inactive)
O=C(Nc1ccccn1)c1csc2c1CCCC2,EC50,[5],> 67.5 µM (inactive)
O=C(NCC1CCCO1)c1ccc2c3n(nc2c1)-c1ccccc1CO3 (stereo not given),AC50,[6],> 52 µM (inactive)
Cc1ccc(NC(=O)c2cc(S(=O)(=O)N(C)C)ccc2N2CCCC2)cc1F,IC50,[7],13.3 µM (active)
same,IC50,[8],6.47 µM (active)
same,IC50,[9],> 138 µM (inactive)
same,IC50,[10],9.92 µM (active)
COc1ccc(CCN(C)c2ccnc3ccccc23)cc1OC,IC50,[11],12 µM (inactive)
CCOc1ccc(CCNC(=O)CN2C(=O)c3cccnc3Oc3ccc(Cl)cc32)cc1,IC50,[12],> 73.5 µM (inactive)
O=C(CSc1ncnc2ccccc12)NCCc1ccccc1,IC50,[9],> 138 µM (inactive)
same,IC50,[10],6.69 µM (active)
COc1cc(CCN)ccc1O,IC50,[1],21.6 µM (inactive)
same,EC50,[2],2.4 µM (active)
same,IC50,[3],> 29.9 µM (inactive)
same,EC50,[4],> 29.9 µM (inactive)
c1cncc(-c2ccc([C@@H]3[C@@H]4CN(Cc5nccs5)C[C@H]3N4)cc2)c1,AC50,[13],2.97 µM (active)
same,AC50,[14],2.03 µM (active)
same,AC50,[15],2.15 µM (active)
same,AC50,[16],1.72 µM (active)
same,AC50,[17],79.6 µM (active)
COc1cc(Br)c(CCNc2c3c(nc4ccccc24)CCCC3)cc1OC,IC50,[11],3 µM (active)
CC(=O)c1nnn(-c2nc(N)nc(N(c3ccccc3)c3ccccc3)n2)c1C,AC50,[18],31.6 µM (inconclusive)
same,AC50,[19],25.1 µM (inconclusive)
same,IC50,[9],> 138 µM (inactive)
same,IC50,[10],1.92 µM (active)
same,AC50,[20],inconclusive
O=c1[nH]c(=O)n(C2CC(O)C(CO)O2)cc1I (stereo not given),EC50,[5],> 67.6 µM (inactive)
O=C1/C(=C/c2cccc(Br)c2)SC(=S)N1CCC(=O)N(CCO)c1ccccc1,AC50,[21],8.17 µM (active)
same,CC50,[22],> 25 µM (active)
same,AC50,[23],91.4 µM (active)
same,AC50,[24],34.3 µM (active)
O=C(Oc1cccc(/C=N/NC(=O)c2ccccn2)c1)c1ccc([N+](=O)[O-])cc1,AC50,[6],> 52 µM (inactive)
O=C(CC(NCCc1ccccc1)C(=O)O)Nc1ccc(O)cc1 (stereo not given),IC50,[1],> 29.9 µM (inactive)
same,EC50,[2],7.65 µM (active)
same,IC50,[3],> 29.9 µM (inactive)
same,EC50,[4],> 29.9 µM (inactive)
COc1cccc(-c2cc3nc(NCCN4CCCC4)n(C)c(=O)c3s2)c1,AC50,[25],5.5 µM (active)
same,AC50,[26],45.4 µM (active)
COc1ccccc1Nc1c2ccccc2nc2ccccc12,AC50,[26],29.8 µM (active)
O=C1C=CC2(O[C@H](c3ccccc3)[C@@H](c3ccccc3)O2)[C@H](Sc2ccccc2O)C1,CC50,[27],50 µM (active)
same,AC50,[28],4.16 µM (active)
same,IC50,[29],43.8 µM (active)
same,IC50,[30],4.1 µM (active)
Oc1ccc(N=Nc2ccc3ccccc3c2)cc1,EC50,[31],3.76 µM (active)
same,EC50,[5],> 67.5 µM (inactive)
same,AC50,[28],4.38 µM (active)
same,EC50,[32],0.712 µM (active)
same,AC50,[33],3.06 µM (active)
CC(Cc1ccccc1)NCCC(c1ccccc1)c1ccccc1 (stereo not given),AC50,[33],10 µM (active)
same,AC50,[6],14.8 µM (active)
COc1ccc(CCN(C)c2ccnc3cc(Cl)ccc23)cc1OC,IC50,[11],5.75 µM (active)
COc1ccc(CCNc2cc(=O)[nH]c(N)n2)cc1,IC50,[12],5.15 µM (active)
